Test results reported in PubChem BioAssay (NCI).
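All cell lines were grown in 96-well plates and treated with compound for 48 hours. GI50 marks 50% less growth. TGI: total growth inhibition.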

What was measured:
Assay in all cases: NCI tumour cell line growth inhibition, 48 h
DLD-1 colon = tested on: DLD-1 colon
DMS 273 small cell lung = tested on: DMS 273 small cell lung
HOP-18 NSCLC = tested on: HOP-18 NSCLC
KM20L2 colon = tested on: KM20L2 colon
LXFL 529 NSCLC = tested on: LXFL 529 NSCLC
XF 498 CNS = tested on: XF 498 CNS
P388 leukemia = tested on: P388 leukemia
P388/ADR leukemia = tested on: P388/ADR leukemia
SN12K1 renal = tested on: SN12K1 renal
RXF-631 renal = tested on: RXF-631 renal

Structure (SMILES)	TGI (DLD-1 colon)	TGI (DMS 273 small cell lung)	TGI (HOP-18 NSCLC)	TGI (KM20L2 colon)	TGI (LXFL 529 NSCLC)	TGI (XF 498 CNS)	GI50 (HOP-18 NSCLC)	TGI (P388 leukemia)	TGI (P388/ADR leukemia)	TGI (SN12K1 renal)	TGI (RXF-631 renal)
Cc1c(OCCCOc2ccc3c(=O)cc(-c4ccccc4)oc3c2C)ccc2c(=O)cc(-c3ccccc3)oc12	> 100 µM	> 100 µM	> 100 µM	> 100 µM	> 100 µM	> 100 µM					
Brc1c2nc3ccccc3nc2n2ccc3ccccc3c12	> 100 µM	> 100 µM		> 100 µM	> 100 µM	> 100 µM					
COc1cccc2c1C(=O)c1c(O)c3c(c(O)c1C2=O)C[C@@](O)(C(=O)CN1CCOCC1)C[C@@H]3OC1CC(N)C(O)C(C)O1 (some centres undefined)	> 74.4 µM	20.5 µM	22 µM	71.5 µM		8.33 µM	1430 nM	2290 nM	71.7 µM	30.1 µM	
C/C=C/c1cc2c(c(=O)o1)C(=O)[C@@H](O)[C@H](C)O2	20 µM	29.7 µM	31.9 µM	30.5 µM				7150 nM		31.8 µM	
C[N+](C)=c1ccc2nc3c(ccc4ccccc43)oc-2c1	21.1 µM	39.2 µM	23.6 µM	27.1 µM	19.4 µM	27.4 µM					20.8 µM
COc1ccc(C2S/C(=C\c3cccc(OC)c3)C(=O)N2NC(=O)Cc2ccccc2)cc1 (centres undefined)	> 100 µM	> 100 µM	> 100 µM		> 100 µM						
CO[C@H]1CC[C@]2(C)C3=CC[C@@]4(C)C(CC[C@@H]4C(C)CC[C@@H](C)C(C)C)C(=CCC2C1)O3 (some centres undefined)	> 25 µM	> 25 µM	> 25 µM	> 25 µM	> 25 µM	> 25 µM					
CC(=O)Oc1c2c(c(OC(C)=O)c3c1n(C(C)=O)c1ccccc1n3C(C)=O)n(C(C)=O)c1ccccc1n2C(C)=O	11.8 µM	10.6 µM			16.5 µM						
COc1cc(N)c2[nH]c3c(C)ccc(C)c3c2c1	> 100 µM	> 100 µM				> 100 µM					
N=S(=O)(c1ccccc1)c1ccccc1	> 100 µM		> 100 µM	> 100 µM	> 100 µM						
CCCCCCCCCCCCCCCCNCC(O)CN (centres undefined)	3.66 µM	14.3 µM	14 µM	7.19 µM		23.9 µM		2680 nM		3.44 µM	
Nc1ncnc2c1ncn2CCCC(c1ccccc1)P(=O)(O)O (centres undefined)	> 100 µM	> 100 µM		> 100 µM	> 100 µM	> 100 µM					
N=c1n(CC(=O)NC23CC4CC(CC(C4)C2)C3)c2ccccc2n1CC(=O)NC12CC3CC(CC(C3)C1)C2	3.5 µM	3.35 µM	4.5 µM	3.2 µM	3.46 µM	2.93 µM					
C[N+](C)(C)CCOC(=O)/C=C/c1cnc[nH]1	> 500 µM	> 500 µM	> 500 µM	> 500 µM		> 500 µM		> 500000 nM	> 316 µM	> 500 µM	
O=C(NC12CC3CC(CC(C3)C1)C2)C(=O)c1c[nH]c2ccc(Br)cc12	89 µM	17.6 µM	44.1 µM	> 100 µM	37.3 µM						
